# Experimental data published in patent US6429326B1, “Benzylidenecamphor-substituted silanes/organosiloxanes for use in photostabilizing sunscreen compositions comprising dibenzoylmethane compounds” (Societe L'Oreal, priority 1998, dated 2002).
row,melting point [°C],SMILES
1,47 to 48,CC12CCC(/C(=C\c3ccc(OCCC[Si](C)(O[Si](C)(C)C)O[Si](C)(C)C)cc3)C1=O)C2(C)C (stereo not drawn)
2,79 to 80,COc1cc(/C=C2/C(=O)C3(C)CCC2C3(C)C)ccc1OCCC[Si](C)(C)C (stereo not drawn)
3,100 to 101,CC12CCC(/C(=C\c3ccc(OCCC[Si](C)(C)C)cc3)C1=O)C2(C)C (stereo not drawn)
